Test results from patent publication US20260224521A1, “BIOMOLECULE FOR TREATMENT OF CORNEAL PATHOLOGIES” (Board of Supervisors of Louisiana State University and …, priority 2019, published 2026).
“Also recorded” adds a separate entry of the source.

Columns and labels:
mouse cornea [1] = experiment: Corneal wound healing 20 h after injury (methylene blue stained wounded area); type: in vivo; settings: for corneal wound healing: compared to PEDF+DHA (and RvD6) treatment
Description: Studies have shown that PEDF+DHA promotes corneal wound healing in rabbit (20, 21), and in normal and diabetic mice (24, 25) after experimental surgery. We validated the ability of RvD6s (either RvD6 or RvD6si) in stimulating corneal wound healing. The right mouse eyes were injured, and the animals were divided into four groups: vehicle, PEDF+DHA, RvD6, and RvD6si (FIG. 4).
(§1) Mice were anesthetized with a mix of ketamine (200 mg/kg) and xylazine (10 mg/kg) injected intraperitoneally, and one drop of proparacaine hydrochloride solution (0.5%) was applied to the right eye subjected to injury. As previously described (19, 29), the center of the cornea was demarcated with a 2 mm trephine, and the epithelium and the anterior stroma were gently removed under a surgical microscope using a corneal rust ring remover (Algerbrush II; Alger Equipment Co., Lago Vista, TX, USA). One drop of 0.3% of tobramycin ophthalmic solution (Henry Schein, Melville, NY, USA) was applied to the eye to prevent postoperative infection. The same investigator (J.H.) performed all surgeries. Afterward, 10 μl of PEDF (50 ng/ml) plus DHA (50 nM) or DHA-derived lipid mediators were applied topically, as explained in each experimental design.
Mice were euthanized 20 h after injury and treatment, and corneas were stained with 0.5% methylene blue for 20 sec and then washed with PBS for 2 min. Photographs were taken with a dissecting microscope (SMZ 1500; Nikon, Tokyo, Japan) through an attached digital camera (DXM 1200; Nikon). The images corresponding to the wounded area were quantified using Photoshop CC 2014 software (Adobe, San Jose, CA, USA).

mouse cornea [2] = experiment: Mouse corneal epithelium removal inside 2 mm diameter central area; type: in vivo; settings: topical eye drops, 3× daily for 12 days; 2020 (40)
Description: as §1

[3] = test system: trigeminal ganglion (TG) gene expression; experiment: Trigeminal ganglion RNA sequencing after corneal injury and treatment; type: in vivo, mouse; settings: RNA-seq, 12 days after corneal injury and topical treatment, vs vehicle
Description: Because corneal sensory nerves originate in TG neurons, we wanted to validate whether corneal injury could be sensed in the TG and t, in turn, would elicit a gene expression response. Thus, TG were harvested 12 days after injury and treatment with RvD6si or RvD6 or vehicle treatment used as control (FIG. 4) and then RNA-seq analysis was performed. […] The box plots depict two activated genes by RvD6si in this class: C9orf72 and Gpm6a (FIG. 6). We also detected specific genes related to neuropeptides and ion channel receptors in the cornea that are stimulated by the addition of PEDF+DHA (19, 21, 24) (FIG. 6D). The RNA-seq established that RvD6 or RvD6si reduced gene expression of two major neuropeptides, tachykinin precursor 1 (Tac1) that encodes Substance P (SP) and calcitonin-related polypeptide beta (Calcb). It is important to note that these neuropeptides, especially Calcb, are major pain-induced mediators in migraine and other primary headaches (30).
TG corresponding to the injury eye side (n=5) were harvested and kept in RNAlater solution (Thermo Fisher Scientific) until homogenized on ice using a Dounce homogenizer. Total mRNA was extracted using an RNeasy mini kit (Qiagen, Germantown, MD, USA) as described by the manufacturer. Purity and concentration of RNA were determined with a NanoDrop ND-1000 spectrophotometer (Thermo Fisher Scientific), and the samples were stored at −80° C. until used. RNA sequencing was performed using the adapted Smart-seq2 protocol (56). Briefly, one ng of total RNA was reverse transcribed with the Oligo-dT30VN and template-switching oligo (TSO) primers. The total cDNAs were amplified using ISPCR primer, and the library was made using the Nextera XT DNA library preparation kit (Illumina, San Diego, CA, USA). The libraries were pooled using the same molarity and sequenced using the NextSeq 500/550 High Output Kit v2 (75 cycles, Illumina). After demultiplexing, RNA-seq data were aligned to the GENCODE GRCm38 mouse primary genome assembly (Release M22, gencodegenes.org/mouse/) using the RSubread package v1.34.6 for R v3.6.1 (57). The outputted BAM files for sequencing data alignment were counted using featureCounts function (Subread v1.6.5 in Ubuntu LTS 16.4 operating system) (58). Next, the raw count data were subjected to differential gene expression analysis using DESeq2 package for R (59). The adjusted p-values were regarded as the false discover rate (FDR).

corneal nerves = experiment: Corneal nerve analysis (PGP9.5 and SP whole-mount nerve density); type: in vivo, mouse
Description: PEDF+DHA stimulates corneal nerve regeneration in injury animal models (20-25). It was important to confirm the biological activity of RvD6si as a lipid mediator underlying the action of PEDF+DHA. To validate this, mice were injured and treated (as described in FIG. 4). Isolated corneas were stained with PGP 9.5, a pan-neuronal marker, and with SP neuropeptide antibodies. The density of non-injured corneal nerves positive to PGP 9.5 and SP, respectively, was used to normalize the values (FIG. 5). Substance P is a main neuropeptide in mammalian corneas (26-28).
as §1
Twelve days after injury and treatment, mice were euthanized, and the eyes enucleated and fixed with Zamboni's fixative (American Master Tech Scientific, Lodi, CA, USA) for 45 min at room temperature. The corneas were then excised and fixed for an additional 15 min, followed by 3 washes with PBS. To block nonspecific binding, corneas were incubated with 10% normal goat serum plus 0.5% Triton X-100 in PBS for 1 h at room temperature. Afterward, corneas were incubated with the primary antibodies, rabbit monoclonal anti-PGP9.5 (1:500), (ab108986; Abcam, Cambridge, MA, USA), and rat monoclonal anti-substance-P (SP; 1:100) (sc-21715; Santa Cruz Biotechnology, Dallas, TX, USA) for 24 h at room temperature with constant shaking. After being washed with PBS, the corneas were incubated with the corresponding secondary antibodies goat anti-rabbit Alexa-Fluor 488 (1:1000) and goat anti-rat Alexa-Fluor 488 (1:1000) (Thermo Fisher Scientific, Waltham, MA, USA) for 24 h at 4° C. Four radial cuts were performed on each cornea that was flatly mounted on a slide with the endothelium side up and examined with a fluorescent microscope (Deconvolution microscope DP80; Olympus, Tokyo, Japan). The images were merged together to build the entire view of the corneal nerve network. The corneal nerve density was measured using Photoshop CC 2014 (Adobe) as previously described (26, 29).

mouse cornea [4] = experiment: Corneal sensitivity measurement (Belmonte non-contact aesthesiometer); type: in vivo; settings: for recovery of corneal sensitivity: compared to PEDF+DHA (and RvD6) treatment; for corneal sensitivity: vs vehicle
Description: Corneal sensitivity was evaluated at days 3, 6, 9 and 12 after corneal injury and treatment (FIG. 4). A new methodology to measure the sensation in mouse cornea was introduced using the Belmonte non-contact aesthesiometer. […] It is important to note that this range of normal corneal sensitivity is critical to evaluate corneal sensation since the Belmonte non-contact aesthesiometer working flow rate is from 20 to 200 ml/min. The range of normal corneal sensitivity from […] in the mouse was regarded as successful recovery after injury and treatment, and it was used to normalize the measurements.
as §1
The non-contact corneal aesthesiometer has been described as a more reliable method than the standard Cochet-Bonnet aesthesiometer to determine the corneal sensation threshold (54). Therefore, for corneal sensation measurement, the Belmonte non-contact corneal aesthesiometer (55) was used with some modification. Briefly, one researcher held the mouse and kept the air output needle at a distance of 3 mm from the cornea. Another researcher controlled the air flow rate. The measurements started at an air flow rate of 80 ml per minute and then increased gradually by ten units until the mouse started blinking. When the mouse blinked, the air flow rate was recorded as the final corneal sensitivity index.

CC/C=C\C[C@@H](O)/C=C/C=C\C/C=C\C/C=C\C=C\[C@H](O)CCC(=O)O (single isomer, unassigned) [RvD6si]
corneal wound healing (wound closure) (mouse cornea [1]; 20 h after injury and topical treatment, compared to vehicle): greatest increase | corneal wound healing (mouse cornea [1]): more potently | corneal wound healing (mouse cornea [1]; listed as RvD6i): accelerated | corneal wound healing, sensitivity and nerve regeneration (mouse cornea [2]): Increased corneal wound healing, sensitivity | C9orf72 gene expression in TG [3]: activated; also recorded: strong activation | Calcb gene expression in TG [3]: reduced; also recorded: decreased | Gpm6a gene expression in TG [3]: activated; also recorded: strong activation | Nrp1 gene expression in TG [3]: selectively enhanced; also recorded: selective increase | Rictor gene expression in TG [3]: strong induction; also recorded: potently and selectively induces | Tac1 gene expression in TG [3]: reduced; also recorded: decreased | Trpm8 gene expression in TG [3]: selectively enhanced; also recorded: increased expression | C9orf72 gene expression in TG ([3]; listed as RvD6i): induces | Calcb gene expression in TG ([3]; listed as RvD6i): decreased; also recorded: down-regulated | Gpm6a gene expression in TG ([3]; listed as RvD6i): induces | Rictor gene expression in TG ([3]; listed as RvD6i): strong inducer; also recorded: up-regulated | Tac1 gene expression in TG ([3]; listed as RvD6i): decreased; also recorded: down-regulated | Trpm8 gene expression in TG ([3]; listed as RvD6i): increased; also recorded: up-regulated | total corneal nerve density, differences between RvD6si, RvD6, and PEDF+DHA (corneal nerves; 12 days after injury and treatment): no significant differences | total corneal nerve density (PGP 9.5) (corneal nerves; 12 days after injury and treatment, % of the normal (uninjured) cornea): 62.6±4.2% | density of SP-positive nerves (corneal nerves; 12 days after injury, compared to the vehicle-treated group): higher | recovery of corneal sensitivity (mouse cornea [4]): more potently | recovery of corneal sensitivity (mouse cornea [4]; listed as RvD6i): accelerated; also recorded: sooner | corneal sensitivity (mouse cornea [4]; day 3 after injury and treatment): faster recovery; also recorded: significantly higher | corneal sensitivity (mouse cornea [4]; day 6 after injury and treatment): faster recovery; also recorded: significantly higher | corneal sensitivity (mouse cornea [4]; day 9 after injury and treatment): significantly higher
